In brackets after ≈: the same amount, converted by molar mass. Read-outs that look alike come from different tables or passages of the source. Values belong to the compound of their own block, whether it stands above or below them.
Experiments:
Assay type in all cases: cell-based
[1] = system: L-6 (rat skeletal myoblast cells); experiment: cells
[2] = system: Plasmodium falciparum K1; experiment: microbe, parasite or virus in culture
[3] = system: T. cruzi Tulahuen C2C4, containing the Lac Z gene; experiment: In vitro sensitivity assay: T. cruzi (Lac Z / CPRG, in L-6 cells); conditions: Trypanosoma cruzi, L6; Tulahuen C4, amastigotes in L-6 cells
[4] = system: Trypanosoma brucei rhodesiense; STIB 900; experiment: microbe, parasite or virus in culture
[5] = system: L. donovani MHOM-ET-67/L82, axenic amastigotes; experiment: In vitro sensitivity assay: axenic Leishmania donovani (Resazurin)
[6] = MHOM-ET-67/L82, amastigotes, 72 hours, read-out: IC50 Values L. donovani

Compound: COc1cc([C@@H]2c3cc4c(cc3[C@H](O)[C@H]3COC(=O)[C@H]23)OCO4)cc(OC)c1OC [podophyllotoxin]
IC50 ([1]; L6, read-out: IC50 Values Cytoxicity): 0.007 µg/mL (≈ 0.0169 µM)
IC50 ([1]; Myoblast, read-out: average IC50): 0.006 µg/mL (≈ 0.0145 µM)

IC50 ([2]; K1, read-out: IC50 Values P. falciparum): 0.059 µg/mL (≈ 0.184 µM)
IC50 ([2]; K1, read-out: average IC50): 0.065 µg/mL (≈ 0.203 µM)
Compound: CCN(CC)CCCC(C)Nc1ccnc2cc(Cl)ccc12 (stereo not shown) [chloroquinine, Chloroquine]

Compound: O=C(O)CNCCC(F)(F)F [MEH-002, (3,3,3-Trifluoro-propylamino)-acetic acid]
IC50 ([1]; L6 cells, read-out: IC50 Values Cytoxicity): > 90 µg/mL
IC50 [3]: > 90 µg/mL
IC50 ([2]; K1, IEF, read-out: IC50 Values P. falciparum): > 5 µg/mL
IC50 ([4]; STIB 900, trypomastigotes, 72 h, read-out: IC50 Values T.b. rhodensiense): 10.3 µg/mL (≈ 60.2 µM)
IC50 [5, 6]: > 90 µg/mL

Compound: Nc1nc(N)nc(Nc2ccc([As]3SCC(CO)S3)cc2)n1 (stereo not shown) [melarsoprol]
IC50 ([4]; 72 h, read-out: IC50 Values T.b. rhodensiense): 0.003 µg/mL
IC50 ([4]; read-out: average IC50): 0.004 µg/mL

IC50 [5, 6]: 0.178 µg/mL (≈ 0.437 µM)
IC50 ([5]; standard drug, protocol value, read-out: average IC50): 0.131 µg/mL (≈ 0.321 µM)
Compound: CCCCCCCCCCCCCCCCOP(=O)([O-])OCC[N+](C)(C)C [miltefosine]

Source: patent publication US9199914B2, “Multiple substituted fluoromethanes as selective and bioactive isosteres” (MEH ASSOCIATES, INC., priority 2010, dated 2015)
